From patent US20090215714A1 (priority 2004, published 2009)
Entries after “also recorded” stand apart in the source; their conditions may differ.

Assays:
Format in all cases: in vivo, human
[1] = system: depressive episode in subjects with bipolar disorder I or II (HAM-D score); test: Double-blind clinical trial of cytidine add-on to divalproex; HAM-D scores in bipolar depression
Excerpt: The new methods are based on a double-blind, long-term clinical trial designed to assess the impact of cytidine on patients with bipolar disorder who were undergoing a major depressive episode.
(§1) 65 subjects with either bipolar disorder I or II, as determined by the Structured Clinical Interview for DSM-IV-Patient Version (SCID), were studied during a depressive episode, as determined by a Hamilton Depression Rating Scale (HAM-D) score of 16 or greater. […] HAM-D scores for every subject were evaluated and recorded once a week for twelve weeks following baseline assessment.
The HAM-D scale is a 17-item scale used in the art to assess the severity of depression in patients already diagnosed with an affective disorder. Higher scores indicate more severe depression. Questions posed to subjects relate to symptoms such as depressed mood, guilty feelings, suicide, sleep disturbances, anxiety levels, and weight loss. Hamilton, (1960) J. Neurology and Neurosurgery in Psychiatry, 23:56-62.

[2] = system: Glu, Gln, GABA and Lac in frontal gray matter (anterior cingulate); test: Single voxel 1H MRS study of brain metabolites in frontal gray matter; conditions: for Gray Matter Glu Concentration, Mean / gray matter GABA concentration, Mean / gray matter Gln concentration, Mean / gray matter Lac concentration, Mean: cytidine group n = 19
Method: A companion imaging single voxel ^1H MRS study to the behavioral study described in Example 1 examined Glx and Lac changes in frontal gray matter. […] Brain MRS was performed using a 3.0 Tesla GE whole body imaging system (GE VH/i, USA). The localized MR spectra were recorded using a point-resolved spatially localized spectroscopy (PRESS) sequence on a General Electric 3T scanner, which was optimized for acquisition of ^1H MR spectra from the frontal lobe. Voxel size was 1.5×1.5×1.5 cm. The voxels were verified in scout views in T2 images obtained vertically in the Z-axis to include predominantly gray matter of the anterior cingulate for the frontal brain region. The acquisition parameters were: repetition time (TR), 2000 ms; echo time (TE), 35 ms; average=128, phase size-cycling=8, and acquisition time, 4 minutes 16 seconds.

[3] = system: treatment emergent mania (YMRS score); test: Treatment-emergent mania/hypomania by Young Mania Rating Scale (YMRS) in the clinical trial
Method: as §1
Tohen et al., (2003) Arch. Gen. Psychiatry, 60:1079-88.

[4] = over the 4 week period, p=0.032

Nc1ccn([C@@H]2O[C@H](CO)[C@@H](O)[C@H]2O)c(=O)n1 [cytidine]
affective improvement compared to placebo supplementation (FIG. 1) ([1]; HAM-D, add-on to divalproex, twelve weeks): enhanced the affective improvement | mean difference in HAM-D scores between groups ([1]; cytidine vs placebo, both add-on to divalproex, week 2 through 12, oral cytidine 1 gram/day): 2.66±0.65 | increase in antidepressant efficacy compared to divalproex alone ([1]; oral cytidine added to divalproex, bipolar depression): 10% | Gray Matter Glu Concentration, Mean ([2]; Baseline): 11.38 millimolar | gray matter GABA concentration, Mean ([2]; Baseline): 0.91 millimolar | gray matter Gln concentration, Mean ([2]; Baseline): 7.38 millimolar | gray matter Lac concentration, Mean ([2]; Baseline): 1.71 millimolar | Gray Matter Glu Concentration, Mean ([2]; Week 2): 9.18 millimolar | gray matter GABA concentration, Mean ([2]; Week 2): 0.97 millimolar | gray matter Gln concentration, Mean ([2]; Week 2): 7.21 millimolar | gray matter Lac concentration, Mean ([2]; Week 2): 1.44 millimolar | Gray Matter Glu Concentration, Mean ([2]; Week 4): 8.85 millimolar | gray matter GABA concentration, Mean ([2]; Week 4): 1.03 millimolar | gray matter Gln concentration, Mean ([2]; Week 4): 6.99 millimolar | gray matter Lac concentration, Mean ([2]; Week 4): 1.42 millimolar | decrease in Glu levels ([2]; over the 4-week period, p<0.01): 22.2% | decrease in Gln levels ([2]; over the 4-week period, p=0.241): 5.3% | decrease in Lac levels [2, 4]: 17.0% | increase in GABA levels [2, 4]: 13.2% | subjects with treatment-emergent mania, modified criteria ([3]; YMRS less than 12 at baseline and greater than 12 subsequently, cytidine plus divalproex): no subjects; also recorded: one subject | subjects with treatment-emergent mania ([3]; YMRS less than 15 at baseline and 15 or greater anytime during the study, 12 weeks, cytidine plus divalproex): No subject | subjects with treatment-emergent hypomania ([3]; cutoff of YMRS score of 9, 12-week trial period, vs six on placebo, p=0.041): one subject | subjects with treatment emergent hypomania ([3]; cutoff of YMRS score of 10, cytidine plus divalproex): one subject
